Experimental data reported in patent US20070026065A1, “Solid, modified-release pharmaceutical dosage forms which can be administered orally” (Bayer HealthCare AG, priority 2004, published 2007).
≈ marks a conversion by molar mass, not a printed value.

How the values were obtained:
Solubility in water = type: physicochemical; conditions: 25° C.
Text: (§1) Accordingly, for the desired once a day administration, specific pharmaceutical formulations with modified release of the active ingredient (I), taking account of its physicochemical and biological properties, are required.

Plasma half-life = type: in vivo
Text: as §1

## O=C(NC[C@H]1CN(c2ccc(N3CCOCC3=O)cc2)C(=O)O1)c1ccc(Cl)s1 [active ingredient (I), 5-Chloro-N-({(5S)-2-oxo-3-[4-(3-oxo-4-morpholinyl)phenyl]-1,3-oxazolidin-5-yl}methyl)-2-thiophenecarboxamide]
Solubility in water
  solubility: ~7 µg/mL (≈ 16.1 µM)
Plasma half-life
  half-life: ~420 min
